Assay results reported in patent publication US11813277B2, “Methods and agents for modulating inflammation” (The Regents of the University of California, priority 2018, dated 2023).

Tests used:
[1] = test system: Limonoids sigmodontis; assay: Murine model of nematode infection; details: mouse, in vivo
[2] = test system: M(IL-4) polarization of BMDMs; assay: Flow cytometry of IL-4-associated cell surface markers in BMDMs; format: cell-based, mouse
Description: (§1) For all gene expression and flow cytometry experiments described below, day 6 BMDM were plated at 3×10^5 cell/well in 12-well plates. The next day, cells were treated with appropriate compounds (and duration as indicated in figures and below) in DMEM supplemented with 5% FBS, 2 mM L-glutamine, 100 units/mL, 100 μg/mL penicillin/streptomycin, 500 μM of sodium pyruvate and 5% v/v conditioned media containing macrophage colony stimulating factor (M-CSF).
(§2) For flow cytometry experiments involving etomoxir (FIG. 1G, FIG. 2A, FIG. 2D, FIG. 3A, FIG. 3B, FIG. 3G, FIG. 3H): BMDMs were mock-treated (media replacement only) or treated with 20 ng/mL of IL-4±3 μM or 200 μM of etomoxir for 48 hr. When measuring expression of M(IL-4)-associated genes in response to etomoxir (FIG. 1H, FIG. 2B), BMDMs were mock-treated or treated with 20 ng/mL of IL4±etomoxir as indicated for 24 hr.
(§3) For experiments involving respiratory chain inhibitors: BMDMs were mock-treated (media replacement only) or treated with 20 ng/mL of IL4±1.2 μM oligomycin (Oligo), 200 nM rotenone (Rot), 200 nM antimycin A (AntiA), 100 nM piericidin A (PierA), or 5 μM carboxyatractylate (CAT) for either 24 (FIG. 4G, FIG. 4H, FIG. 6G) or 48 hr (FIG. 4F, FIG. 7D). All inhibitors were given as co-treatments simultaneously with IL-4.
For experiments involving CoA supplementation (FIG. 10A, FIG. 10B, FIG. 10C, FIG. 10D, FIG. 10E, FIG. 9C, FIG. 9D): BMDMs were mock-treated (media replacement only) or treated with 20 ng/mL of IL4±etomoxir (concentration indicated in figures)±CoA (concentration indicated in figures) for 48 hr. Etomoxir and CoA were given as co-treatments simultaneously with IL-4.
Prior to FACS analysis, BMDMs were detached using 350 μL of Accutase, followed by two washes with FACS buffer (PBS+1% (v/v) BSA+0.05% (w/v) sodium azide). Anti-mouse CD16/32 antibody was used at a dilution of 1:500, while all other antibodies were used at a dilution of 1:250. All flow cytometry data were captured using BD FACSVerse flow cytometer and analyzed using the FlowJo X 10.0.7r2 software. In all, 2×104 live events were acquired for each sample (gated on DAPIneg). For analysis, CD206+/CD71+ and CD206+/CD301+ populations were gated based on Fluorescence Minus One (FMO) controls.

[3] = test system: BMDMs; assay: Basal mitochondrial respiration in intact BMDMs; format: cell-based, mouse
Description: All respirometry studies were conducted in either a Seahorse XF96 or XFe96 Analyzer. All experiments were conducted at 37° C., and at pH 7.4 (intact cells) or 7.2 (permeabilized cells and isolated mitochondria). Calculation of respiratory parameters was made according to standard protocols (Divakaruni, A. S., Paradyse, A., Ferrick, D. A., Murphy, A. N., and Jastroch, M. (2014a) Analysis and interpretation of microplate-based oxygen consumption and pH data. Meth. Enzym 547, 509-54), and all rates were corrected for non-mitochondrial respiration/background signal by subtracting the oxygen consumption rate insensitive to rotenone plus antimycin A.
Respiration in intact BMDMs was measured in medium containing 8 mM glucose, 2 mM glutamine, 2 mM pyruvate, and 5 mM HEPES. Cells were plated at 5.0×10^4 cells/well and assayed after 48 hr. When measuring the response to IL-4, cells were treated with 20 ng/mL of IL-4 24 hr. after initial plating, and respiration was measured the following day (˜48 hr after initial seeding). […]

[4] = test system: BMDMs; assay: Intracellular free coenzyme A levels in BMDMs; format: cell-based, mouse; details: IL-4
Description: On Day 6 of differentiation, BMDMs were seeded at 1.2×10^6 cells/well in 6-well plates. 24 hr later, BMDMs were mock-treated or co-treated with 20 ng/mL IL-4±200 μM etomoxir±500 μM CoA in DMEM supplemented with 5% FBS, 2 mM L-glutamine, 100 units/mL, […] penicillin/streptomycin, 500 μM of sodium pyruvate and 5% v/v conditioned media containing macrophage colony stimulating factor (M-CSF) for 20 hr. Prior to sample collections, cells were washed with 600 μL of 0.9% (w/v) NaCl twice. Three wells per replicate per treatment were combined in 2 mL centrifuge tubes and centrifuged at 500 g for 5 mins at 4° C. The supernatant was removed, and the cell pellet was re-suspended in 75 μL of ice-cold 0.7% (v/v) perchloric acid for 5 min. Samples were then centrifuged at 10,000 g for 7 mins at 4° C. and the resulting supernatant was adjusted to pH 7 with 2M NaOH and 500 mM K2HPO4. The coenzyme A concentration was determined with Coenzyme A Assay Kit following manufacturer's instructions (Sigma MAK034) using 40 μL of sample supernatant. Coenzyme A levels were normalized to total cellular protein (BCA method).

[5] = test system: acute liver injury; assay: Murine acute liver injury model; format: in vivo
[6] = test system: diet-induced NASH; assay: Rat model of diet-induced NASH; format: in vivo
[7] = test system: BMDMs; assay: Cellular ATP production rates from respirometry and lactate assay; format: cell-based, mouse; details: 200 nM rotenone, IL-4 24 hr
Description: Respiration in intact BMDMs was measured in medium containing 8 mM glucose, 2 mM glutamine, 2 mM pyruvate, and 5 mM HEPES. Cells were plated at 5.0×10^4 cells/well and assayed after 48 hr. When measuring the response to IL-4, cells were treated with 20 ng/mL of IL-4 24 hr. after initial plating, and respiration was measured the following day (˜48 hr after initial seeding). Respiration was measured in response to oligomycin (1 μM), FCCP (1.2 μM), and rotenone (0.2 μM) with antimycin A (1 μM).
Under conditions matching intact cell respirometry for BMDMs, the extracellular medium was harvested and lactate was analyzed as previously described (Mookerjee, S. A., Goncalves, R. L., Gerencser, A. A., Nicholls, D. G., and Brand, M. D. (2015). The contributions of respiration and glycolysis to extracellular acid production. Biochim et Biophys Acta. 1847, 171-81; Divakaruni, A. S., Wallace, M., Buren, C., Martyniuk, K., Andreyev, A. Y., Li, E., Fields, J. A., Cordes, T., Reynolds, I. J., Bloodgood, B. L., et al., (2017b) Inhibition of the mitochondrial pyruvate carrier protects from excitotoxic neuronal death. J. Cell Biol. 216, 1091-1105). […] The reaction velocity was measured after 2 min (340/460 nm excitation/emission). […]

[8] = test system: Relma, Mgl2, Ym1, Fabp4, Arg1 expression; assay: qPCR of IL-4-associated genes in BMDMs; format: cell-based, mouse; details: IL-4, 24 hr
Description: as §1, §2, §3
RNA was isolated with TRIzol, then cDNA was synthesized with high-capacity cDNA reverse transcription kit. KAPA SYBR FAST qPCR Master Mix kit and a LightCycler 480 were used for quantitative RT-PCR. Fold change related to the control group was calculated using […] with 36b4 as the reference gene.

[9] = test system: LCFA oxidation in BMDMs; assay: 9,10-3H-palmitate oxidation (3H2O release) in BMDMs; format: cell-based, mouse; details: 200 nM rotenone or 200 nM antimycin A, IL-4-stimulated
Description: BMDMs at day 6 of differentiation were seeded at 3×10^5 cells/well in 12 well plates in BMDM media. The next day, cells were treated in DMEM containing 25 mM glucose supplemented with 5% FBS, 2 mM L-Glutamax, 100 units/mL, 100 μg/mL penicillin/streptomycin, 1 mM of sodium pyruvate, 1 mM carnitine, and 5% v/v conditioned media containing macrophage colony stimulating factor (M-CSF) under one of 5 conditions: control, 20 ng/mL of IL-4±3 μM or 200 μM of etomoxir, or 200 nM rotenone, or 200 nM antimycin A for 24 hr. Fatty acid oxidation was measured 24 hours later as previously described (Rognstad, R. (1991) Estimation of peroxisomal and mitochondrial fatty acid oxidation in rat hepatocytes using tritiated substrates. Biochem J 279:147-150, 1991; Cha, B. S., Ciaraldi, T. P., Park, K. S., Carter, L., Mudaliar, S. R., and Henry R R. (2005) Impaired fatty acid metabolism in type 2 diabetic skeletal muscle cells is reversed by PPARgamma agonists. Am J Physiol Endocrinol Metab. 289, E151-9) following a fluid change to DMEM with components as described above except 10 mM glucose and 0.2 μCi (final concentration of 5 μM) BSA-conjugated [9,10-3H]palmitic acid. No additional IL-4 was added at the time of this fluid change, but etomoxir, rotenone and antimycin A were added, and the plates were placed in a […] incubator at 37° C. for 3 hr. After incubation, a 100 μL aliquot of the culture medium was passed over an ion-exchange resin, and the column was washed twice with 0.75 ml of water. Free fatty acids were retained by the resin, whereas the tritium hydrolyzed from radiolabeled palmitate catabolism was released as labeled water, which passes freely through the resin, and is subsequently counted for radioactivity. All data are corrected for protein content in each well. There were 3 technical replicates for each condition, and 4 biological replicates arising from 4 separate animals.

[10] = 500 μM CoA, absence of etomoxir

CC(C)(COP(=O)(O)OP(=O)(O)OC[C@H]1O[C@@H](n2cnc3c(N)ncnc32)[C@H](O)[C@@H]1OP(=O)(O)O)[C@@H](O)C(=O)NCCC(=O)NCCS [CoA, [(2R,3S,4R,5R)-5-(6-aminopurin-9-yl)-4-hydroxy-3-phosphonooxy-oxolan-2-yl]methyl [hydroxy-[(3R)-3-hydroxy-2,2-dimethyl-4-oxo-4-[[3-oxo-3-(2-sulfanylethylamino)propyl]amino]butoxy]phosphoryl] hydrogen phosphate]
parasite burden and replication [1]: reduce parasite burden and replication
rescue of cell surface marker expression ([2]; 200 μM etomoxir, varying CoA): concentration-dependent function of exogenously added CoA
reduction of CD206+/CD71+ cells upon etomoxir treatment ([2]; 500 μM CoA with 200 μM etomoxir, IL-4): can be rescued
IL-4-induced expression of CD206 and CD71 [2, 10]: significantly increased
polarization ([2]; CoA, absence of IL-4): no effect on polarization
etomoxir-induced reduction in CD206+/CD71+ cells ([2]; LysM-Cre Cpt1a-/-, LysM-Cre Cpt2-/-, CD11c-Cre Cpt1a-/- BMDMs, 200 μM etomoxir, 500 μM CoA): could be rescued
basal respiration ([3]; CoA supplementation, BMDMs treated with excess etomoxir): did not alter basal respiration
oxygen consumption ([3]; CoA with IL-4): does not enhance oxygen consumption
intracellular free CoA levels ([4]; 500 μM CoA with 200 μM etomoxir): could be restored
intracellular free CoA levels [4, 10]: significantly increased
healing time and resolution of injury ([5]; intravenous): decrease healing time and improve the extent of resolution from the injury
expression of alternative liver macrophage activation biomarkers ([5]; peritoneal macrophages and/or Kupffer cells): Increased expression

CC(CNC(=O)[C@H](O)C(C)(C)CO)C(=O)NCCc1ccccc1 (stereo partly drawn) [alpha-methyl-N-phenethyl-pantothenamide]
expression of alternative macrophage activation biomarkers ([6]; Kupffer cells and/or myeloid-derived precursors from the liver): Decreased expression
inflammation and fibrosis in the liver ([6]; intravenous): reduce inflammation and fibrosis in the liver

C=C(C)[C@H]1Cc2c(ccc3c2O[C@@H]2COc4cc(OC)c(OC)cc4[C@@H]2C3=O)O1 [rotenone]
population of CD206+/CD71+ cells ([2]; oxidative phosphorylation inhibitors co-treated with IL-4): none of the inhibitors of ATP synthesis or the electron transport chain significantly lowered
ATP production from oxidative phosphorylation [7]: limited ATP production from oxidative phosphorylation
overall rates of energy metabolism (ATP production) [7]: maintain overall rates of energy metabolism
IL-4-induced expression of Relma, Ym1, Mgl2 ([8]; electron transport chain inhibitors): failed to reduce
expression of Ym1 and Arg1 ([8]; mitochondrial inhibitors): increased expression
respiration at 24 hr ([3]; 1.2 μM oligomycin, 200 nM rotenone, 200 nM antimycin A, 100 nM piericidin A, 5 μM CAT): strongly reduced respiration
3H2O release from 9,10-3H-palmitate [9]: suppressed LCFA oxidation to levels in line with 200 μM etomoxir
